How the values were obtained:
MRSA = experiment: Potentiating effect of galloyl quinic acid derivatives for the antibacterial activity of oxacillin (agar plate dilution method, MIC); assay type: cell-based, Staphylococcus aureus
Protocol: According to the agar plate dilution method defined by Japan Society of Chemotherapy, MIC (Minimum inhibitory concentration) was determined. CAMHA was prepared by adding 50 mg/l of Ca-ion, 25 mg/l of Mg-ion, and 2% of NaCl to Mueller-Hinton II Agar (MHA), and it was used as a medium for use in the measurement of sensitivity. The bacterial liquid was incubated at 37° C. overnight and diluted to 10^6 CFU/ml with saline.
It was confirmed that the known substances shown below were contained in “Tara” and their MICs were determined as described in example 2 with respect to the effects of the combination use with oxacillin

[1] = tested on: MRSA COL and MRSA Strain No. 5; experiment: Potentiating effect of various gallates for antibacterial activity of oxacillin (MIC by broth microdilution method and FIC); assay type: cell-based, Staphylococcus aureus; settings: for FIC value: combination with oxacillin
Protocol: According to the broth microdilution method defined by Japan Society of Chemotherapy, MIC was determined. CAMHA was prepared by adding 50 mg/l of Ca-ion, 25 mg/l of Mg-ion, and 2% of NaCl to MHB (Mueller-Hinton Broth), and it was used as a medium for use in the measurement of sensitivity. In 96-well microplates 100 μl of the medium for use in the measurement of sensitivity containing drugs was dispensed. The bacterial liquid was incubated at 37° C. overnight, diluted with saline and added to the plate so that the final concentration of the bacteria was 5×10^5 CFU/well. […] FIC (fractional inhibitory concentration) was calculated from the result and the potency of the effect of the combination use was evaluated.

## COC(=O)C1(O)CC(OC(=O)c2cc(O)c(O)c(O)c2)C(OC(=O)c2cc(O)c(O)c(O)c2)C(OC(=O)c2cc(O)c(O)c(O)c2)C1 (stereo not shown) [Methyl 3,4,5-trigalloylquinate, methyl 3,4,5-trigalloylquinate]
MRSA
  effect of combination use with oxacillin (words): weak effects

## COC(=O)C1(O)CC(O)C(OC(=O)c2cc(O)c(O)c(O)c2)C(OC(=O)c2cc(O)c(O)c(O)c2)C1 (stereo not shown) [compound 1]
MRSA; ATCC 6538, with 12.5 μg/ml of compound
  Oxacillin MIC: <0.5 µg/mL
MRSA; ATCC 6538, with 25 μg/ml of compound
  Oxacillin MIC: <0.063 µg/mL
MRSA; ATCC 6538, with 50 μg/ml of compound
  Oxacillin MIC: <0.5 µg/mL
MRSA; MRSA 1, with 12.5 μg/ml of compound
  Oxacillin MIC: 128 µg/mL
MRSA; MRSA 1, with 25 μg/ml of compound
  Oxacillin MIC: 128 µg/mL
MRSA; MRSA 1, with 50 μg/ml of compound
  Oxacillin MIC: 128 µg/mL
MRSA; MRSA 2, with 12.5 μg/ml of compound
  Oxacillin MIC: 2 µg/mL
MRSA; MRSA 2, with 25 μg/ml of compound
  Oxacillin MIC: 2 µg/mL
MRSA; MRSA 2, with 50 μg/ml of compound
  Oxacillin MIC: 2 µg/mL
MRSA; MRSA 3, with 12.5 μg/ml of compound
  Oxacillin MIC: <0.5 µg/mL
MRSA; MRSA 3, with 25 μg/ml of compound
  Oxacillin MIC: 0.5 µg/mL
MRSA; MRSA 3, with 50 μg/ml of compound
  Oxacillin MIC: 1 µg/mL
MRSA; MRSA 4, with 12.5 μg/ml of compound
  Oxacillin MIC: 128 µg/mL
MRSA; MRSA 4, with 25 μg/ml of compound
  Oxacillin MIC: 128 µg/mL
MRSA; MRSA 4, with 50 μg/ml of compound
  Oxacillin MIC: 32 µg/mL
MRSA; MRSA 5, with 12.5 μg/ml of compound
  Oxacillin MIC: 128 µg/mL
MRSA; MRSA 5, with 25 μg/ml of compound
  Oxacillin MIC: 32 µg/mL
MRSA; MRSA 5, with 50 μg/ml of compound
  Oxacillin MIC: 64 µg/mL
MRSA; MRSA 6, with 12.5 μg/ml of compound
  Oxacillin MIC: 2 µg/mL
MRSA; MRSA 6, with 25 μg/ml of compound
  Oxacillin MIC: 2 µg/mL
MRSA; MRSA 6, with 50 μg/ml of compound
  Oxacillin MIC: 4 µg/mL
MRSA; MRSA 7, with 12.5 μg/ml of compound
  Oxacillin MIC: 32 µg/mL
MRSA; MRSA 7, with 25 μg/ml of compound
  Oxacillin MIC: 16 µg/mL
MRSA; MRSA 7, with 50 μg/ml of compound
  Oxacillin MIC: 16 µg/mL
MRSA; MRSA 8, with 12.5 μg/ml of compound
  Oxacillin MIC: <0.5 µg/mL
MRSA; MRSA 8, with 25 μg/ml of compound
  Oxacillin MIC: 16 µg/mL
MRSA; MRSA 8, with 50 μg/ml of compound
  Oxacillin MIC: 1 µg/mL
MRSA; MRSA 9, with 12.5 μg/ml of compound
  Oxacillin MIC: 16 µg/mL
MRSA; MRSA 9, with 25 μg/ml of compound
  Oxacillin MIC: 16 µg/mL
MRSA; MRSA 9, with 50 μg/ml of compound
  Oxacillin MIC: 8 µg/mL
MRSA; MRSA 10, with 12.5 μg/ml of compound
  Oxacillin MIC: 4 µg/mL
MRSA; MRSA 10, with 25 μg/ml of compound
  Oxacillin MIC: 8 µg/mL
MRSA; MRSA 10, with 50 μg/ml of compound
  Oxacillin MIC: 8 µg/mL
MRSA; MRSA 12, with 12.5 μg/ml of compound
  Oxacillin MIC: 16 µg/mL
MRSA; MRSA 12, with 25 μg/ml of compound
  Oxacillin MIC: 16 µg/mL
MRSA; MRSA 12, with 50 μg/ml of compound
  Oxacillin MIC: 16 µg/mL
MRSA; MRSA 16, with 12.5 μg/ml of compound
  Oxacillin MIC: 128 µg/mL
MRSA; MRSA 16, with 25 μg/ml of compound
  Oxacillin MIC: 128 µg/mL
MRSA; MRSA 16, with 50 μg/ml of compound
  Oxacillin MIC: 64 µg/mL
MRSA; MRSA 17, with 12.5 μg/ml of compound
  Oxacillin MIC: 32 µg/mL
MRSA; MRSA 17, with 25 μg/ml of compound
  Oxacillin MIC: 32 µg/mL
MRSA; MRSA 17, with 50 μg/ml of compound
  Oxacillin MIC: 4 µg/mL
MRSA; MRSA 18, with 12.5 μg/ml of compound
  Oxacillin MIC: 128 µg/mL
MRSA; MRSA 18, with 25 μg/ml of compound
  Oxacillin MIC: 128 µg/mL
MRSA; MRSA 18, with 50 μg/ml of compound
  Oxacillin MIC: 32 µg/mL
MRSA; MRSA 20, with 12.5 μg/ml of compound
  Oxacillin MIC: <0.5 µg/mL
MRSA; MRSA 20, with 25 μg/ml of compound
  Oxacillin MIC: 0.25 µg/mL
MRSA; MRSA 20, with 50 μg/ml of compound
  Oxacillin MIC: <0.5 µg/mL
MRSA; MRSA 21, with 12.5 μg/ml of compound
  Oxacillin MIC: <0.5 µg/mL
MRSA; MRSA 21, with 25 μg/ml of compound
  Oxacillin MIC: 0.25 µg/mL
MRSA; MRSA 21, with 50 μg/ml of compound
  Oxacillin MIC: 1 µg/mL
MRSA; MRSA 22, with 12.5 μg/ml of compound
  Oxacillin MIC: 1 µg/mL
MRSA; MRSA 22, with 25 μg/ml of compound
  Oxacillin MIC: 0.5 µg/mL
MRSA; MRSA 22, with 50 μg/ml of compound
  Oxacillin MIC: 1 µg/mL
MRSA; MRSA COL, with 12.5 μg/ml of compound
  Oxacillin MIC: 8 µg/mL
MRSA; MRSA COL, with 25 μg/ml of compound
  Oxacillin MIC: 32 µg/mL
MRSA; MRSA COL, with 50 μg/ml of compound
  Oxacillin MIC: 2 µg/mL
MRSA; MSSA 1003, with 12.5 μg/ml of compound
  Oxacillin MIC: <0.5 µg/mL
MRSA; MSSA 1003, with 25 μg/ml of compound
  Oxacillin MIC: 0.25 µg/mL
MRSA; MSSA 1003, with 50 μg/ml of compound
  Oxacillin MIC: <0.5 µg/mL
MRSA; MSSA 1010, with 12.5 μg/ml of compound
  Oxacillin MIC: <0.5 µg/mL
MRSA; MSSA 1010, with 25 μg/ml of compound
  Oxacillin MIC: 0.5 µg/mL
MRSA; MSSA 1010, with 50 μg/ml of compound
  Oxacillin MIC: <0.5 µg/mL
MRSA; MSSA 1032, with 12.5 μg/ml of compound
  Oxacillin MIC: <0.5 µg/mL
MRSA; MSSA 1032, with 25 μg/ml of compound
  Oxacillin MIC: 0.25 µg/mL
MRSA; MSSA 1032, with 50 μg/ml of compound
  Oxacillin MIC: <0.5 µg/mL
MRSA; RN4220, with 12.5 μg/ml of compound
  Oxacillin MIC: <0.5 µg/mL
MRSA; RN4220, with 25 μg/ml of compound
  Oxacillin MIC: 0.125 µg/mL
MRSA; RN4220, with 50 μg/ml of compound
  Oxacillin MIC: <0.5 µg/mL

## O=C(O[C@@H]1Cc2c(O)cc(O)cc2O[C@@H]1c1ccc(O)c(O)c1)c1cc(O)c(O)c(O)c1 [Epicatechin gallate, epicatechin gallate]
[1]; COL Strain and Strain No. 5
  effect of the combination use with oxacillin by FIC values: more potent effects of the combination use
[1]; MRSA COL
  FIC value: 0.127
[1]; MRSA Strain No. 5
  FIC value: 0.188
